The structures appear in SMILES notation.

For this test, the target named is T1, ERα protein (HiBiT-tagged) in ESR1_HiBiT KI MCF7 cells (Homo sapiens, UniProt P03372).
T1 sequence (P03372 1-595): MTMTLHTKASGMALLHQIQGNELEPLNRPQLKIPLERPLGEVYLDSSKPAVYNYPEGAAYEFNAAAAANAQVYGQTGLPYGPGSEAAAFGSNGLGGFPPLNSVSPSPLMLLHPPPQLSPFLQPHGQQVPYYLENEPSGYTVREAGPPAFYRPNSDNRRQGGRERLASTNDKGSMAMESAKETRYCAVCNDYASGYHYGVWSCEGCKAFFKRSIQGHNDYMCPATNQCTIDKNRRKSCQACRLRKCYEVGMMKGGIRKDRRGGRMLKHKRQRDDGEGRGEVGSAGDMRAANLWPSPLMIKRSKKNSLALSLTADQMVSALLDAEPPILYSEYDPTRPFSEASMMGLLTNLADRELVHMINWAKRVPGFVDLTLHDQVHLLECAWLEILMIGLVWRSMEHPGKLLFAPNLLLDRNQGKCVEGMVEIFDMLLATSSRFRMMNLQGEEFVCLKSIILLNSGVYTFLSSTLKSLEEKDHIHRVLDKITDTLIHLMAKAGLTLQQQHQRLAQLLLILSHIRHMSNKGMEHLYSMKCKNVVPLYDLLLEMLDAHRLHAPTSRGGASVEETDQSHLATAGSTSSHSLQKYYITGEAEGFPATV
The test is described as follows: Nano Glo HiBiT Lytic Degradation Assay. To be noted: 6 hours with compound, 14-point dose response 1:3, bell-shape curve fit, half-maximal effect of first Hill model, read-out: MCF7 ESR1 HiBiT - (DC50). Type of test: cell-based. In a few lines: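 HiBiT-tagged endogenous ERα remaining in MCF7 knock-in cells was quantified by lytic luminescence after a 6 h treatment. DC50 values derive from a bell-shaped curve, taken at the first Hill component's half-maximal effect.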
(In general: The HiBiT peptide binds its large partner to form an active luciferase.)
`Cc1cc(F)c([C@H]2CCc3cc(O)ccc3[C@H]2c2ccc(N3CCC(CN4CCN(c5ccc6c(c5)CN([C@H]5CCC(=O)NC5=O)C6=O)CC4)CC3)cc2)cc1F` [II-75]: the DC50 was found to be 0.73 nM.

For the compound `O=C1CC[C@H](N2Cc3cc(N4CCN(C[C@H]5CCCN(c6ccc([C@@H]7c8ccc(O)cc8CC[C@@H]7c7ccccc7)cc6)C5)CC4)ccc3C2=O)C(=O)N1` (single isomer, unassigned) [II-22], the DC50 came to 5 nM.

On to `O=C1CC[C@H](N2Cc3cc(N4CCN(CC5CCN(c6ccc([C@@H]7c8ccc(O)cc8CO[C@@]78CCc7ccccc78)cc6)CC5)CC4)ccc3C2=O)C(=O)N1` [Compound I-77, (S)-3-(5-(4-((1-(4-((1S,4′R)-7′-hydroxy-2,3-dihydrospiro[indene-1,3′-isochroman]-4′-yl)phenyl)piperidin-4-yl)methyl)piperazin-1-yl)-1-oxoisoindolin-2-yl)piperidine-2,6-dione], for which the DC50 was 0.2 nM.

In the case of `C[C@]1(C2CCCCC2)OCc2cc(O)ccc2[C@@H]1c1ccc(N2CCC(CN3CCN(c4ccc5c(c4)CN([C@H]4CCC(=O)NC4=O)C5=O)CC3)CC2)cc1` [Compound I-257, (S)-3-(5-(4-((1-(4-((3R,4S)-3-cyclohexyl-7-hydroxy-3-methylisochroman-4-yl)phenyl)piperidin-4-yl)methyl)piperazin-1-yl)-1-oxoisoindolin-2-yl)piperidine-2,6-dione], the DC50 amounted to 3300 nM.

Turning to `O=C1CC[C@H](N2Cc3cc(N4CCN(CC5CCN(c6ccc([C@H]7c8ccc(O)cc8CO[C@@H]7C7CCCCC7)cc6)CC5)CC4)ccc3C2=O)C(=O)N1` [Compound I-248, (S)-3-(5-(4-((1-(4-((3R,4S)-3-cyclohexyl-7-hydroxyisochroman-4-yl)phenyl)piperidin-4-yl)methyl)piperazin-1-yl)-1-oxoisoindolin-2-yl)piperidine-2,6-dione], the half-maximal degradation concentration (DC50) amounted to 21 nM.

For `O=C1CCC(c2ccc(C3CC4(C3)CN(CC3CCN(c5ccc([C@@H]6c7ccc(O)cc7CC[C@@H]6c6ccccc6)cc5)CC3)C4)cc2)C(=O)N1` (stereo partly drawn) [Compound I-182, 3-(4-(2-((1-(4-((1R,2S)-6-hydroxy-2-phenyl-1,2,3,4-tetrahydronaphthalen-1-yl)phenyl)piperidin-4-yl)methyl)-2-azaspiro[3.3]heptan-6-yl)phenyl)piperidine-2,6-dione], the DC50 turned out to be 2 nM.

As for `[2H]c1c([2H])c([2H])c([C@@H]2CC(F)(F)c3cc(O)ccc3[C@@H]2c2ccc(N3CCC(CN4CCN(c5ccc6c(c5)CN([C@H]5CCC(=O)NC5=O)C6=O)CC4)CC3)cc2)c([2H])c1[2H]` [Compound I-336, (S)-3-(5-(4-((1-(4-((1S,2R)-4,4-difluoro-6-hydroxy-2-(phenyl-d5)-1,2,3,4-tetrahydronaphthalen-1-yl)phenyl)piperidin-4-yl)methyl)piperazin-1-yl)-1-oxoisoindolin-2-yl)piperidine-2,6-dione], the DC50 was 15 nM.

Turning to `Cn1cc([C@H]2CCc3cc(O)ccc3[C@H]2c2ccc(N3CCC(CN4CCN(c5ccc6c(c5)CN([C@H]5CCC(=O)NC5=O)C6=O)CC4)CC3)cc2)cn1` [Compound I-30], the 50% degradation concentration (DC50) turned out to be 2 nM.

Take `O=C1CC[C@H](N2Cc3cc(N4CC5(CCN(CC6CCN(c7ccc([C@@H]8c9ccc(O)cc9CC[C@@H]8c8ccccc8)cc7)CC6)CC5)C4)ccc3C2=O)C(=O)N1` (single isomer, unassigned) [II-95]: the DC50 came out at 0.83 nM.

In the case of `O=C1CCC(N2Cc3cc(N4CCN(CC5CCN(c6ccc([C@H]7c8ccc(O)cc8CC[C@H]7c7cccnc7)cc6)CC5)CC4)ccc3C2=O)C(=O)N1` (single isomer, unassigned) [Compound I-108], the DC50 came to 17.3 nM.

`O=C1CCC(N2Cc3cc(N4CCN(CC5CCN(c6ccc([C@H]7c8ccc(O)cc8CC[C@H]7c7cccc8c7CC8)cc6)CC5)CC4)ccc3C2=O)C(=O)N1` (single isomer, unassigned) [Compound I-101]: the DC50 came to 8 nM.

One may read the DC50 as the midpoint of the concentration-degradation curve.

Source of the values: patent US20250388565A1, “ESTROGEN RECEPTOR ALPHA DEGRADERS AND METHODS OF USE THEREOF” (Relay Therapeutics, Inc., priority 2022, published 2025).
